Experimental data: US20130267476A1, “Pesticidal Active Mixtures Comprising Pyrazole Compounds” (BASF SE, priority 2010, published 2013)
Values joined by “and” are separate entries in the source; they are usually repeats but may differ in a detail not shown here. Identical values can stand only once. Like-named read-outs stand apart in the source and are kept apart here.

Columns and labels:
[1] = system: green peach aphid (Myzus persicae); test: Test 2—Control of Green Peach Aphid (artificial diet under membrane, systemic); assay type: in vivo; conditions: 3 days
From the text: Test 2—Control of Green Peach Aphid
For evaluating control of green peach aphid (Myzus persicae) through systemic means the test unit consisted of 96-well-microtiter plates containing liquid artificial diet under an artificial membrane.
The compounds or mixtures were formulated using a solution containing 75% water and 25% DMSO. Different concentrations of formulated compounds or mixtures were pipetted into the aphid diet, using a custom built pipetter, at two replications.
(§1) For experimental mixtures in these tests identical volumes of both mixing partners at the desired concentrations respectively, were mixed together.
After application, 5-8 adult aphids were placed on the artificial membrane inside the microtiter plate wells. The aphids were then allowed to suck on the treated aphid diet and incubated at 23±1° C., 50±5% RH for 3 days. Aphid mortality and fecundity was then visually assessed.

[2] = system: vetch aphid (Megoura viciae); test: Test 1—Control of Vetch Aphid (leaf disks, 24-well microtiter plates); assay type: in vivo; conditions: 5 days
Experimental: Test 1—Control of Vetch Aphid
For evaluating control of vetch aphid (Megoura viciae) through contact or systemic means the test unit consisted of 24-well-microtiter plates containing broad bean leaf disks.
The compounds or mixtures were formulated using a solution containing 75% water and 25% Dimethylsulfoxide (DMSO). Different concentrations of formulated compounds or mixtures were sprayed onto the leaf disks at 2.5 μl, using a custom built micro atomizer, at two replications.
as §1
After application, the leaf disks were air-dried and 5-8 adult aphids placed on the leaf disks inside the microtiter plate wells. The aphids were then allowed to suck on the treated leaf disks and incubated at 23±1° C., 50±5% relative humidity (RH) for 5 days. Aphid mortality and fecundity was then visually assessed.

[3] = system: boll weevil (Anthonomus grandis); test: Test 3—Control of Boll Weevil (insect diet with eggs); assay type: in vivo; conditions: 5 days
Experimental: Test 3—Control of Boll Weevil
For evaluating control of boll weevil (Anthonomus grandis) the test unit consisted of 24-well-microtiter plates containing an insect diet and 20-30 A. grandis eggs.
The compounds or mixtures were formulated using a solution containing 75% water and 25% DMSO. Different concentrations of formulated compounds or mixtures were sprayed onto the insect diet at 20 μl, using a custom built micro atomizer, at two replications.
as §1
After application, microtiter plates were incubated at 23±1° C., 50±5% RH for 5 days. Egg and larval mortality was then visually assessed.

[4] = system: Mediterranean fruitfly (Ceratitis capitata); test: Test 4—Control of Mediterranean Fruitfly (insect diet with eggs); assay type: in vivo; conditions: 5 days
Experimental: Test 4—Control of Mediterranean Fruitfly
For evaluating control of Mediterranean fruitfly (Ceratitis capitata) the test unit consisted of 96-well-microtiter plates containing an insect diet and 50-80 C. capitata eggs.
The compounds or mixtures were formulated using a solution containing 75% water and 25% DMSO. Different concentrations of formulated compounds or mixtures were sprayed onto the insect diet at 5 μl, using a custom built micro atomizer, at two replications.
as §1
(§2) After application, microtiter plates were incubated at 28±1° C., 80±5% RH for 5 days. Egg and larval mortality was then visually assessed.

[5] = system: Pyricularia oryzae; assay type: cell-based; conditions: 7 days after inoculation
[6] = system: Alternaria solani; test: Test 8—Activity Against Early Blight on Tomatoes Caused by Alternaria solani (microtest); assay type: cell-based; conditions: 7 days after inoculation
From the text: (§3) The active compounds were formulated separately as a stock solution having a concentration of 10000 ppm in dimethyl sulfoxide.
(§4) The measured parameters were compared to the growth of the active compound-free control variant (100%) and the fungus-free and active compound-free blank value to determine the relative growth in % of the pathogens in the respective active compounds. These percentages were converted into efficacies.
Test 8—Activity Against Early Blight on Tomatoes Caused by Alternaria solani
(§5) The stock solutions were mixed according to the ratio, pipetted onto a micro titer plate (MTP) and diluted with water to the stated concentrations. A spore suspension of Alternaria solani in an aqueous biomalt solution was then added. The plates were placed in a water vapor-saturated chamber at a temperature of 18° C. Using an absorption photometer, the MTPs were measured at 405 nm 7 days after the inoculation.

[7] = system: Botrytis cinerea; test: Test 6—Activity Against the Grey Mold Botrytis cinerea in the Microtiterplate Test; assay type: cell-based; conditions: 7 days after inoculation
From the text: as §3, §4
Test 6—Activity Against the Grey Mold Botrytis cinerea in the Microtiterplate Test
as §5, with “Botrci cinerea” for “Alternaria solani”

[8] = system: Septoria tritici; test: Test 9—Activity Against Leaf Blotch on Wheat Caused by Septoria tritici (microtest); assay type: cell-based; conditions: 7 days after inoculation
From the text: as §3, §4
Test 9—Activity Against Leaf Blotch on Wheat Caused by Septoria tritici
as §5, with “SepCoria triticiin” for “Alternaria solani in”

[9] = system: tobacco budworm (Heliothis virescens); test: Test 5—Control of Tobacco Budworm (insect diet with eggs); assay type: in vivo; conditions: 5 days
Experimental: Test 5—Control of Tobacco Budworm
For evaluating control of tobacco budworm (Heliothis virescens) the test unit consisted of 96-well-microtiter plates containing an insect diet and 15-25 H. virescens eggs.
The compounds or mixtures were formulated using a solution containing 75% water and 25% DMSO. Different concentrations of formulated compounds or mixtures were sprayed onto the insect diet at 10 μl, using a custom built micro atomizer, at two replications.
as §1, §2

[10] = 0 + 10 ppm (second compound alone)
[11] = 0 + 0.4 ppm (second compound alone)
[12] = 0 + 2 ppm (second compound alone)
[13] = 0 + 20 ppm (second compound alone)
[14] = 2 + 0 ppm (first compound alone)
[15] = 10 + 0 ppm (first compound alone)
[16] = 50 + 0 ppm (first compound alone)
[17] = 0 + 0.08 ppm (second compound alone)

## C[C@]1(COC(=O)CC2CC2)[C@@H]2C[C@H](OC(=O)CC3CC3)[C@@]3(C)Oc4cc(-c5cccnc5)oc(=O)c4[C@H](O)[C@@H]3[C@@]2(C)CC[C@@H]1OC(=O)CC1CC1 [A27.2]
[1]; 0 + 0.0008 ppm (second compound alone)
  Average Control %: 0%
[1]; 0 + 0.004 ppm (second compound alone)
  Average Control %: 50%

## CNC(=O)c1cc(Cl)cc(C)c1NC(=O)c1cc(Br)nn1-c1ncccc1Cl [Chloranthraniliprole, chloranthraniliprole]
[2]; [10]
  Average Control %: 25%
[1]; [11]
  Average Control %: 0%
[3]; [11]
  Average Control %: 25%
[4]; [10]
  Average Control %: 0%

## N#Cc1nn(-c2c(Cl)cc(C(F)(F)F)cc2Cl)c(N)c1[S+]([O-])C(F)(F)F (stereo not shown) [Fipronil, fipronil]
[2]; [12]
  Average Control %: 0%
[1]; [12]
  Average Control %: 0%

## N#CCNC(=O)c1cnccc1C(F)(F)F [Flonicamid, flonicamid]
[2]; [13]
  Average Control %: 25%
[1]; 0 + 4 ppm (second compound alone)
  Average Control %: 0%
[3]; [13]
  Average Control %: 0%

## CN(C(=O)c1cnn(C)c1C(F)F)c1cccnc1 [I-17]
[2]; [14]
  Average Control %: 0%
[5]; 63 ppm
  Observed efficacy %: 0%
[6]; 63 ppm
  Observed efficacy %: 4%

## Cc1c(C(=O)N(C)c2ccnnc2)cnn1C(C)C [I-52]
[2]; [15]
  Average Control %: 50% and 25%
[1]; 0.08 + 0 ppm (first compound alone)
  Average Control %: 0%
[1]; [14]
  Average Control %: 25% and 50%
[3]; [14]
  Average Control %: 0%
[3]; [15]
  Average Control %: 0%
[3]; [16]
  Average Control %: 0%
[4]; [16]
  Average Control %: 0%
[7]; 63 ppm
  Observed efficacy %: 4%
[5]; 63 ppm
  Observed efficacy %: 0%
[6]; 63 ppm
  Observed efficacy %: 0%
[8]; 4 ppm
  Observed efficacy %: 18%
[8]; 16 ppm
  Observed efficacy %: 18%

## Cc1c(C(=O)N(C)c2ccnnc2)cnn1CC(F)(F)F [I-76]
[2]; [14]
  Average Control %: 0%
[2]; [15]
  Average Control %: 0%
[2]; [16]
  Average Control %: 0%
[1]; 0.4 + 0 ppm (first compound alone)
  Average Control %: 0%
[1]; [14]
  Average Control %: 0%
[1]; [16]
  Average Control %: 50%
[4]; [15]
  Average Control %: 0%
[9]; [16]
  Average Control %: 0%
[8]; 1 ppm
  Observed efficacy %: 11%

## O=[N+]([O-])NC1=NCCN1Cc1ccc(Cl)nc1 [Imidacloprid, imidacloprid]
[2]; 0 + 0.016 ppm (second compound alone)
  Average Control %: 0%
[2]; [17]
  Average Control %: 0%
[2]; [11]
  Average Control %: 25%
[4]; [10]
  Average Control %: 0%

## OC(Cc1ccccc1Cl)(Cn1nc[nH]c1=S)C1(Cl)CC1 (stereo not shown) [Prothioconazole, 2-[2-(1-chlorocyclopropyl)-3-(2-chlorophenyl)-2-hydroxypropyl]-2,4-dihydro[1,2,4]triazole-3-thione]
[7]; 0.25 ppm
  Observed efficacy %: 45%
[5]; 0.25 ppm
  Observed efficacy %: 15%
[6]; 0.25 ppm
  Observed efficacy %: 22%

## CC1=NNC(=O)N(/N=C/c2cccnc2)C1 [Pymetrozine, pymetrozine]
[9]; 0 + 400 ppm (second compound alone)
  Average Control %: 50%

## COC(=O)N(OC)c1ccccc1COc1ccn(-c2ccc(Cl)cc2)n1 [Pyraclostrobin, methyl N-{2-[1-(4-chlorophenyl)-1H-pyrazol-3-yloxymethyl]phenyl}(N-methoxy)carbamate]
[8]; 0.004 ppm
  Observed efficacy %: 46%

## CCOC(=O)OC1=C(c2cc(C)ccc2C)C(=O)N[C@]12CC[C@@H](OC)CC2 [Spirotetramat, spirotetramat]
[1]; 0 + 3.2 ppm (second compound alone)
  Average Control %: 0%
[1]; 0 + 16 ppm (second compound alone)
  Average Control %: 0%

## CC(c1ccc(C(F)(F)F)nc1)S(C)(=O)=NC#N (stereo not shown) [Sulfoxaflor, sulfoxaflor]
[1]; 0 + 0.0064 ppm (second compound alone)
  Average Control %: 0%

## CC(C)(C)C(O)(CCc1ccc(Cl)cc1)Cn1cncn1 (stereo not shown) [Tebuconazole, 1-(4-chlorophenyl)-4,4-dimethyl-3-[1,2,4]triazol-1-ylmethylpentan-3-ol]
[8]; 0.25 ppm
  Observed efficacy %: 57%

## CN1COCN(Cc2cnc(Cl)s2)/C1=N\[N+](=O)[O-] [Thiamethoxam, thiamethoxam]
[2]; [12]
  Average Control %: 25%
[4]; [10]
  Average Control %: 25%

## CON=C(C(=O)OC)c1ccccc1CON=C(C)c1cccc(C(F)(F)F)c1 [Trifloxystrobin, methyl (E)-methoxyimino-{(E)-α-[1-(α,α,α-trifluoro-mtolyl)ethylideneaminooxy]-o-tolyl}acetate]
[8]; 0.016 ppm
  Observed efficacy %: 71%

## CC1(C)C(C=C(Cl)Cl)C1C(=O)OC(C#N)c1cccc(Oc2ccccc2)c1 (stereo not drawn) [α-cypermethrin, alpha-cypermethrin]
[2]; [11]
  Average Control %: 25%
[2]; [12]
  Average Control %: 0%
[3]; [11]
  Average Control %: 25%

## abamectin
[2]; [17]
  Average Control %: 25%
